Assays:
[1] = molecular target: CSNK2A1 (Homo sapiens, UniProt P68400); test: cell-based; assay type: cell-based
[2] = molecular target: CSNK2A2 (Homo sapiens, UniProt P19784); test: cell-based
[3] = system: SARS-CoV-2 spike protein uptake; assay type: cell-based, human
[4] = system: MHV-nLuc; test: microbe, parasite or virus in culture; assay type: cell-based, mouse hepatitis virus (MHV); conditions: Murine coronavirus, 10 h, read-out: MHV replication (pIC50) (converted)
[5] = system: DBT cells; conditions: LDH assay, 10 h, concentrations up to 10 μM
[6] = system: A549-ACE2 cells; conditions: ref [18]; cited from earlier work
[7] = system: Vero cells; conditions: ref [18]; cited from earlier work
[8] = system: SARS-CoV-2; conditions: African green monkey kidney epithelial Vero cells infected with SARS-CoV-2; ref [18]; cited from earlier work
[9] = system: SARS-CoV-2; conditions: human lung epithelial A549-ACE2 cells; ref [18]; cited from earlier work

Sequence of CSNK2A2 (P19784 whole entry): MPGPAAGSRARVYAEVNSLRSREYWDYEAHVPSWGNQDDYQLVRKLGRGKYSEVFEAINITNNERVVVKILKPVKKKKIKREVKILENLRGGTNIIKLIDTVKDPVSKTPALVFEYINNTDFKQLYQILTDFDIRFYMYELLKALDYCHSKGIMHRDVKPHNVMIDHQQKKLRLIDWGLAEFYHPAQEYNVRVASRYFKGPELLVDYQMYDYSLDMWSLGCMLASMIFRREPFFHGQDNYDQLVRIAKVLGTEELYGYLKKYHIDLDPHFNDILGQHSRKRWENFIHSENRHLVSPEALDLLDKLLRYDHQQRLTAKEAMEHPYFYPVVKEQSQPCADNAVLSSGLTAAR
Sequence of CSNK2A1 (P68400 whole entry): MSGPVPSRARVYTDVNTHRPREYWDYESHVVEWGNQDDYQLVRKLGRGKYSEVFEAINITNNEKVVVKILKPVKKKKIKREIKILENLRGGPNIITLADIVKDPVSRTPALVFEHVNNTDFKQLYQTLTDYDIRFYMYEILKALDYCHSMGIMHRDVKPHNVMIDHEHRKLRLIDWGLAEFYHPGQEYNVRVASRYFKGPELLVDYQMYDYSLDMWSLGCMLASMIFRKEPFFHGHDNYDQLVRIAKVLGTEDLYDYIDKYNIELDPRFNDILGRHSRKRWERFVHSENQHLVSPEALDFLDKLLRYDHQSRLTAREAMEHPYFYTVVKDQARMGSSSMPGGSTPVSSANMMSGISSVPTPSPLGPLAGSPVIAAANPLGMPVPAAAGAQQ

SMILES | IC50 [1] [nM] | IC50 [2] [nM] | other results
CCC(=O)Nc1cc(Nc2cc(NC3CC3)n3ncc(C#N)c3n2)ccc1N(C)CCN [Compound 9] | 3.98 | – | –
CCC(=O)Nc1cc(Nc2cc(NC3CC3)n3ncc(C#N)c3n2)ccc1N(C)CCN1CCCC1 [Compound 11] | 100 | 100 | –
CCC(=O)Nc1cc(Nc2cc(NC3CC3)n3ncc(C#N)c3n2)ccc1N(C)CCN1CCCCC1 [Compound 12] | 251 | – | –
CCC(=O)Nc1cc(Nc2cc(NC3CC3)n3ncc(C#N)c3n2)ccc1N1CCNCC1 [Compound 14] | 158 | – | –
CCC(=O)Nc1cc(Nc2cc(NC3CC3)n3ncc(C#N)c3n2)ccc1N1CCCC(NC)C1 (stereo not drawn) [Compound 15] | 2 | 15.8 | selectivity for CSNK2A1 over CSNK2A2 ([1]; from nanoBRET values): 6–8 fold
CC(=O)Nc1ccc2ccn(-c3cc(NC4CC(F)(F)C4)n4ncc(C#N)c4n3)c2c1 [Compound 18] | 39.8 | 100 | –
CC(=O)Nc1ccc2ccn(-c3cc(NC45CC(C4)C5)n4ncc(C#N)c4n3)c2c1 [Compound 19] | 158 | 79.4 | –
CC(=O)Nc1ccc2ccn(-c3cc(NC4(C)CC4)n4ncc(C#N)c4n3)c2c1 [Compound 20] | 501 | 1580 | –
CC(=O)Nc1ccc2ccn(-c3cc(NCC4CCOC4)n4ncc(C#N)c4n3)c2c1 (stereo not drawn) [Compound 25] | 31.6 | 251 | –
CC(=O)Nc1ccc2ccn(-c3cc(NCC4CCOCC4)n4ncc(C#N)c4n3)c2c1 [Compound 26] | 100 | 2000 | –
CC(=O)Nc1ccc2ccn(-c3cc(NC4CCN(C(C)=O)CC4)n4ncc(C#N)c4n3)c2c1 [Compound 28] | 63.1 | 398 | –
CC(=O)Nc1ccc2ccn(-c3cc(NCc4cnn(C)c4)n4ncc(C#N)c4n3)c2c1 [Compound 29] | 158 | 200 | –
CC(=O)Nc1ccc2ccn(-c3cc(N[C@H](C)C#N)n4ncc(C#N)c4n3)c2c1 [Compound 30] | 126 | 79.4 | –
CC(=O)Nc1ccc2ccn(-c3cc(Sc4ccccc4)n4ncc(C#N)c4n3)c2c1 [Compound 33] | 6310 | 6310 | –
CCC(=O)Nc1cc(Nc2cc(NC3CC3)n3ncc(C#N)c3n2)ccc1C [SGC-CK2–1] | – | – | decrease in spike protein uptake [3]: 70–80%; IC50 [4]: 126 nM
O=C(O)c1ccc2c(c1)nc(Nc1cccc(Cl)c1)c1ccncc12 [silmitasertib] | – | – | effect on cell viability [5]: no effect on cell viability; cell toxicity [6]: cell toxicity at micromolar doses; cell toxicity [7]: cell toxicity at micromolar doses; antiviral activity, SARS-CoV-2 (pIC50) [8]: 5.6; inhibition of SARS-CoV-2 infection (pIC50) [9]: < 5

— article PMC8750650 (bioRxiv, 2022)
